According to patent US20080096894A1, “Anti-Bacterial Compounds” (ASTON UNIVERSITY, priority 2005, published 2008):
In brackets after ≈: the same amount, converted by molar mass. Read-outs that look alike come from different tables or passages of the source.

How the values were obtained:
[1] = tested on: human mononuclear leucocytes (MNL, white blood cells); assay: direct leucocyte toxicity, tryptan blue exclusion, 18 hours; assay type: cell-based
Procedure: The in vitro assay used human mononuclear leucocytes (MNL, white blood cells) which were incubated with the test compound for 18 hours and cell death determined by tryptan blue exclusion (tryptan blue is a dye, which stains dead cells, whilst living cells extrude it).
The toxicity of 4PYcq and the aldehyde cq and pyridine-4-carboxamidrazone precursors were assessed using the same in vitro assay with human mononuclear leucocytes as that described above. The toxicity of related compounds, 2-hydroxybenzylidene-pyridine-2-carboxamidrazone 4PYbw and benzylidenepyridine-2-carboxamidrazone 4PYaa were also examined.

MRSA = assay: MIC, agar dilution, multipoint inoculator; assay type: cell-based, methicillin-resistant Staphylococcus aureus
Procedure: (§1) This activity was measured using a multipoint inoculator method as follows. The MIC for each compound was measured using an agar dilution method (Onda, H., et al., Int. J. Antimicrob. Agents. 18, 263 (2001)) (Mueller Hinton agar) by means of a multipoint inoculator delivering 10^4 colony forming units per spot.
‘Staph’ refers to the reference strain of S. aureus (NCTC 6571). A tick in the MRSA column refers to a positive zone against MRSA strain 96-7474, and the MIC range (in μg/ml) which follows is that found against a panel of ten MRSA strains. Where MIC values are given for MRSA, these are stated as a range of values, as testing was carried out on a panel of clinical isolates.

S. haemolyticus = assay: MIC, agar dilution, multipoint inoculator; assay type: cell-based; details: S. haemolyticus Isolate 1, upper value of MIC reading
Procedure: as §1

E. faecalis = assay: MIC, agar dilution, multipoint inoculator; assay type: cell-based; details: upper value of MIC reading
Procedure: as §1

S. aureus = assay: MIC, agar dilution, multipoint inoculator; assay type: cell-based, Staphylococcus aureus; details: upper value of MIC reading
Procedure: as §1

S. epidemisis = assay: MIC, agar dilution, multipoint inoculator; assay type: cell-based, Staphylococcus epidermidis; details: upper value of MIC reading
Procedure: as §1

E. faecium = assay: MIC, agar dilution, multipoint inoculator; assay type: cell-based, Enterococcus faecium; details: Enterococcus faecium, upper value of MIC reading, read-out: MIC
Procedure: as §1

[2] = Staphylococcus aureus, MRSA, 18 h, panel of ten MRSA strains (clinical isolates), read-out: MRSA MIC range
[3] = MRSA Isolate 2, upper value of MIC reading, in µg/mL
[4] = MRSA Isolate 3, upper value of MIC reading, in µg/mL
[5] = MRSA Isolate 4, upper value of MIC reading, in µg/mL

CCC(C)(C)c1ccc(/C=N/N=C(\N)c2ccccn2)cc1 [Compound 2PYaf]
direct MNL toxicity (in words) [1]: indistinguishable from the background levels
% Leucocyte Death ([1]; human, 18 h, 1 mM): 3.1 ± 1.0%
MIC (MRSA; [2]): > 256 µg/mL

N/C(=N\N=C\c1ccccc1Sc1ccc(Cl)cc1)c1ccccn1 [Compound 2PYeh]
direct MNL toxicity (in words) [1]: indistinguishable from the background levels
% Leucocyte Death ([1]; human, 18 h, 0.1 mM): 3.7 ± 2.6%

NC(=NN=Cc1ccc(O)c(O)c1O)c1cnccn1 [PZcb]
MIC (S. haemolyticus): 256 µg/mL (≈ 937 µM)
MIC (E. faecalis; E. faecalis Isolate 2): 256 µg/mL (≈ 937 µM)
MIC (E. faecalis; E. faecalis Isolate 3): 256 µg/mL (≈ 937 µM)
MIC (MRSA; MRSA Isolate 1, upper value of MIC reading, in µg/mL): 256
MIC (MRSA; [3]): 256
MIC (MRSA; [4]): 256
MIC (MRSA; [5]): 256
MIC (MRSA; MRSA Isolate 5, upper value of MIC reading, in µg/mL): 256
MIC (MRSA; MRSA Isolate 6, upper value of MIC reading, in µg/mL): 256
MIC (MRSA; MRSA Isolate 7, upper value of MIC reading, in µg/mL): 256
MIC (MRSA; MRSA Isolate 8, upper value of MIC reading, in µg/mL): 256
MIC (MRSA; MRSA Isolate 9, upper value of MIC reading, in µg/mL): 256
MIC (MRSA; MRSA Isolate 10, upper value of MIC reading, in µg/mL): 256
MRSA MIC range (MRSA; panel of ten MRSA strains (clinical isolates)): 128 to 256 µg/mL
MIC (S. aureus; S. aureus Cowan 1): 256 µg/mL (≈ 937 µM)
MIC (S. aureus; S. aureus NCTC 6571): 256 µg/mL (≈ 937 µM)
MIC (S. aureus; S. aureus NCTC 10788): 256 µg/mL (≈ 937 µM)
MIC (S. epidemisis; S. epidemisis NCTC 11047): 256 µg/mL (≈ 937 µM)

CC(C)(C)c1ccc(C=O)cc1 [ae]
direct MNL toxicity (in words) [1]: most toxic
% Leucocyte Death ([1]; human, 18 h, 1 mM): 24.1 ± 9.6%

NC(=NN=Cc1cc(Br)cc([N+](=O)[O-])c1O)c1ccc2ccccc2n1 [QNcl]
MIC (S. haemolyticus): 256 µg/mL (≈ 618 µM)
MIC (E. faecalis; E. faecalis Isolate 2): 256 µg/mL (≈ 618 µM)
MIC (E. faecalis; E. faecalis Isolate 3): 256 µg/mL (≈ 618 µM)
MIC (MRSA; [3]): 64
MIC (MRSA; [4]): 64
MIC (MRSA; [5]): 64
MIC (S. aureus; S. aureus NCTC 6571): > 256 µg/mL
MIC (S. epidemisis; S. epidemisis NCTC 11047): 256 µg/mL (≈ 618 µM)

O=Cc1cccc2ccccc12 [al]
% Leucocyte Death ([1]; 1.0 mM, 18 hours): 9.2 ± 4.7%

CCC(C)(C)c1ccc(/C=N/N=C(\N)c2ccncc2)cc1 [Compound 4PYaf, N^1-[4-(1,1-dimethylpropyl)benzylidene]-pyridine-4-carboxamidrazone]
MIC (S. haemolyticus; Staphylococcus haemolyticus, 18 h, read-out: MIC): 64 µg/mL (≈ 217 µM)
MIC (E. faecalis; Enterococcus faecalis, 18 h, E. faecalis EBH1, read-out: MIC): 64 µg/mL (≈ 217 µM)
MIC (E. faecalis; Enterococcus faecalis, 18 h, E. faecalis Isolate 1, read-out: MIC): 64 µg/mL (≈ 217 µM)
MIC (E. faecalis; Enterococcus faecalis, 18 h, E. faecalis Isolate 2, read-out: MIC): 64 µg/mL (≈ 217 µM)
MIC (E. faecalis; Enterococcus faecalis, 18 h, E. faecalis Isolate 3, read-out: MIC): 64 µg/mL (≈ 217 µM)
MIC (E. faecalis; Enterococcus faecalis, 18 h, E. faecalis Isolate 4, read-out: MIC): 128 µg/mL (≈ 435 µM)
MIC (E. faecalis; Enterococcus faecalis, 18 h, E. faecalis Isolate 5, read-out: MIC): 128 µg/mL (≈ 435 µM)
MIC (E. faecalis; Enterococcus faecalis, NCTC5957, 18 h, E. faecalis NCTC 5957, read-out: MIC): 64 µg/mL (≈ 217 µM)
MIC (E. faecium; 18 h, E. faecium ACTCC 10541): 64 µg/mL (≈ 217 µM)
MIC (E. faecium; NCTC7171, 18 h, E. faecium NCTC 7171): 64 µg/mL (≈ 217 µM)
MIC (MRSA; Staphylococcus aureus, 18 h, MRSA Isolate 1, upper value of MIC reading, read-out: MIC): 64 µg/mL (≈ 217 µM)
MIC (MRSA; Staphylococcus aureus, 18 h, MRSA Isolate 2, upper value of MIC reading, read-out: MIC): 64 µg/mL (≈ 217 µM)
MIC (MRSA; Staphylococcus aureus, 18 h, MRSA Isolate 3, upper value of MIC reading, read-out: MIC): 64 µg/mL (≈ 217 µM)
MIC (MRSA; Staphylococcus aureus, 18 h, MRSA Isolate 4, upper value of MIC reading, read-out: MIC): 64 µg/mL (≈ 217 µM)
MIC (MRSA; Staphylococcus aureus, 18 h, MRSA Isolate 5, upper value of MIC reading, read-out: MIC): 64 µg/mL (≈ 217 µM)
MIC (MRSA; Staphylococcus aureus, 18 h, MRSA Isolate 6, upper value of MIC reading, read-out: MIC): 64 µg/mL (≈ 217 µM)
MIC (MRSA; Staphylococcus aureus, 18 h, MRSA Isolate 7, upper value of MIC reading, read-out: MIC): 64 µg/mL (≈ 217 µM)
MIC (MRSA; Staphylococcus aureus, 18 h, MRSA Isolate 8, upper value of MIC reading, read-out: MIC): 64 µg/mL (≈ 217 µM)
MIC (MRSA; Staphylococcus aureus, 18 h, MRSA Isolate 9, upper value of MIC reading, read-out: MIC): 64 µg/mL (≈ 217 µM)
MIC (MRSA; Staphylococcus aureus, 18 h, MRSA Isolate 10, upper value of MIC reading, read-out: MIC): 64 µg/mL (≈ 217 µM)
MIC (MRSA; [2]): 32 to 64 µg/mL (≈ 109 to 217 µM)
MIC (S. aureus; Staphylococcus aureus, 18 h, S. aureus Cowan 1, read-out: MIC): 64 µg/mL (≈ 217 µM)
MIC (S. aureus; Staphylococcus aureus, NCTC6571, 18 h, S. aureus NCTC 6571, read-out: MIC): 64 µg/mL (≈ 217 µM)
MIC (S. aureus; Staphylococcus aureus, NCTC10788, 18 h, S. aureus NCTC 10788, read-out: MIC): 64 µg/mL (≈ 217 µM)
MIC (S. epidemisis; Staphylococcus epidermidis, 18 h, S. epidemisis Isolate 1, read-out: MIC): 64 µg/mL (≈ 217 µM)
MIC (S. epidemisis; Staphylococcus epidermidis, NCTC11047, 18 h, S. epidemisis NCTC 11047, read-out: MIC): 64 µg/mL (≈ 217 µM)

CCC(C)(C)c1ccc(C=O)cc1 [af]
% Leucocyte Death ([1]; human, 18 h, 1 mM): 5.5 ± 3.0%

N/C(=N\N=C\c1ccccc1OCc1ccccc1)c1ccccn1 [Compound 2PYbe]
direct MNL toxicity (in words) [1]: indistinguishable from the background levels
% Leucocyte Death ([1]; human, 18 h, 0.1 mM): 5.1 ± 4.1%
